Reference: patent publication US9132130B2, “Purine derivative and antitumor agent using same” (ZENYAKU KOGYO KABUSHIKI KAISHA, priority 2009, dated 2015)

Columns and labels:
[1] = test system: MCF-7 cells (human breast cancer cells); test: antitumor activity against breast cancer cells, cell counting; format: cell-based; details: MCF7; MCF-7 human breast cancer cells, cultured 72 hours, cell counter
Description: MCF-7 cells (human breast cancer cells) subcultured in a culture medium composed of a MEM medium added with 10% fetal bovine serum, 25 mM HEPES and 0.1 mg/ml kanamycin under the conditions of 37° C. and 5% carbon dioxide gas were made into single floating cells by treating with trypsin/EDTA, and a single cell suspension of 4×10^4 cells per 1 ml was prepared using the MEM medium (added with 10% fetal bovine serum, 25 mM HEPES and 0.1 mg/ml kanamycin). After dissolving the test substances (Compound 2 and Compound 7) in DMSO, they were diluted with the MEM medium (added with 10% fetal bovine serum, 25 mM HEPES and 0.1 mg/ml kanamycin) and prepared so that the concentrations were 6.4×10^−8 to 2.0×10^−5 M.
0.1 ml of the cell suspension was placed into each well of a 96-well microplate, cultured for 24 hours to allow the cells to adhere to the microplate, then 0.1 ml of the sample solutions were added, and cultured for 72 hours at 37° C. in 5% carbon dioxide gas.
Afterwards, the cells in each well were made single floating cells by treating with trypsin/EDTA, and the number of cells was counted using a cell counter to obtain the growth inhibition rate at various sample concentrations and calculate the concentrations at which growth was inhibited by 50% (GI50 values [μM]).

[2] = test system: WiDr cells (human colon cancer cells); test: in vitro antitumor activity test, WiDr cells, XTT colorimetry; format: cell-based; details: cultured 72 hours
How it was run: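 Human colon cancer cells in MEM/10% FBS were seeded 3×10^4 cells/ml and allowed to adhere for 24 h, then exposed to compounds prepared at 2.0×10^−9 to 2.0×10^−4 M in RPMI 1640 for 72 h at 37° C, 5% CO2. Growth was read by XTT colorimetry and GI50 (μM) calculated.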

human colon cancer WiDr = test: in vivo antitumor activity, nude mice transplanted with human colon cancer WiDr; design: species or system BALB/c-nu/nu mice; details: 400 mg/kg orally daily day 0 to day 13 (12 times), tumor volume at day 14
Description: (§1) Tumor tissue fragments of human colon cancer WiDr (3 mm×3 mm×3 mm) were transplanted subcutaneously into the chests of six-week-old female BALB/c-nu/nu mice, and sample administration started when the tumor volume reached at least approximately 100 mm^3 (day 0). Compound 2 was suspended in a 1% HPC (L) solution using an agate mortar. 400 mg/kg of Compound 2 was orally administered daily from day 0 to day 13 (excluding day 3 and day 10, a total of 12 times). Tumor diameters were measured to calculate tumor volume (½×long diameter×short diameter×short diameter), and the tumor volume after 14 days (at day 14) from the start of sample administration was divided by the tumor volume at the start of the administration to calculate relative tumor growth rate. The percentage of the relative tumor growth rate of the control group with respect to the relative tumor growth rate of the group administered with Compound 2 was taken as T/C (%).

human lung cancer A549 = test: in vivo antitumor activity, nude mice transplanted with human lung cancer A549; design: species or system BALB/c-nu/nu mice; details: 400 mg/kg orally daily day 0 to day 13 (12 times), tumor volume at day 14
Description: as §1, with “of human lung cancer A549” for “of human colon cancer WiDr”, “lung cancer A549 (3 mm×3” for “colon cancer WiDr (3 mm×3”, “Compound 2 and Compound 7 were suspended in” for “Compound 2 was suspended in”, “a 1% hydroxypropylcellulose (HPC [L]) solution using” for “a 1% HPC (L) solution using”, “day 10, a total of 12 times). 400 mg/kg of Compound 7 was intraperitoneally administered daily from day 0 to day 13 (excluding day 4 and day 11, a total” for “day 10, a total”, “Compound 2 or Compound 7 was taken” for “Compound 2 was taken”

[3] = test system: B16F10 cells (mouse melanoma [malignant melanoma] cells); test: in vitro antitumor activity test, B16F10 cells, XTT colorimetry; format: cell-based; details: B16-F10, cultured 72 hours
How it was run: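 B16F10 mouse melanoma cells were seeded from a 1×10^4 cells/ml suspension and allowed to adhere for 24 h. Compounds in DMSO were diluted in RPMI 1640 with 10% FBS to 2.0×10^−9 to 2.0×10^−4 M and incubated 72 h at 37° C, 5% CO2. XTT colorimetry gave GI50 (μM).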

[4] = test system: PC-3 cells (human prostate cancer cells); test: in vitro antitumor activity test, PC-3 cells, XTT colorimetry; format: cell-based; details: PC-3 human prostate cancer cells, cultured 72 hours
How it was run: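 PC-3 human prostate cancer cells, seeded at 2×10^4 cells/ml and allowed to adhere for 24 h, were exposed 72 h at 37° C, 5% CO2 to compound diluted in RPMI 1640 with 10% FBS to 2.0×10^−9 to 2.0×10^−4 M (pre-addition solutions). Growth was measured by XTT colorimetry and GI50 (μM) calculated.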

[5] = test system: A549 cells (human lung cancer cells); test: in vitro antitumor activity test, A549 cells, XTT colorimetry; format: cell-based; details: cultured 72 hours
How it was run: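 Cells seeded at 2×10^4 cells/ml in MEM + 10% FBS, 25 mM HEPES, kanamycin, allowed to adhere 24 h, then exposed to compounds (DMSO stocks diluted in RPMI 1640; prepared at 2.0×10^−9 to 2.0×10^−4 M) for 72 h at 37 °C, 5% CO2. Growth inhibition read by XTT colorimetry; GI50 (μM) calculated.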

[6] = test system: human prostate cancer PC-3; test: in vivo antitumor activity, nude mice transplanted with human prostate cancer PC-3; design: species or system BALB/c-nu/nu mice; details: PC-3 in nude mice, 400 mg/kg orally daily day 0 to day 13 (12 times), tumor volume at day 14
Description: as §1, with “prostate” for “colon”, “PC-3” for “WiDr”

[7] = test system: P388 cells (mouse leukemia cells); test: in vitro antitumor activity test, P388 cells, XTT colorimetry; format: cell-based; details: cultured 72 hours
How it was run: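 Cells from DBA/2 mouse ascites, in RPMI 1640 with 10% FBS and 25 mM HEPES, seeded from a 4×10^4 cells/ml suspension. Equal volume added of compound solutions prepared at 2.0×10^−9 to 2.0×10^−4 M (pre-mixing). After 72 h at 37° C, 5% CO2, growth read by XTT; GI50 (μM) is the concentration giving 50% growth inhibition.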

GI50 [2]: 300 nM
melting point: 139 °C
GI50 [3]: 300 nM
GI50 [4]: 100 nM
GI50 [5]: 140 nM
GI50 [7]: 110 nM
SMILES: CCc1nc2c(N3CCOCC3)nc(SCc3ccc(OC)c(N)c3)nc2n1C [Compound 2, 2-(3-amino-4-methoxybenzylsulfanyl)-8-ethyl-9-methyl-6-morpholino-9H-purine]
GI50 [1]: 110 nM
T/C (human colon cancer WiDr): 62.1%
T/C (human lung cancer A549): 73.1%
T/C [6]: 32.2%
